Measurements: patent US20070292392A1, “USE OF THYMOSIN ALPHA 1 FOR PREPARING A MEDICAMENT FOR THE TREATMENT OF STAGE IV MALIGNANT MELANOMA” (SIGMA-TAU INDUSTRIE FARMACEUTICHE RIUNITE S.P.A., priority 2006, published 2007)
Ends that are not written are not given here.

What was measured:
[1] = tested on: human non-small cell lung cancer (NSCLC) cells; details: subcutaneous 1 or 10 mg per day; nude mice previously inoculated with human NSCLC cells; cited from earlier work
[2] = tested on: lymphosarcoma cells; details: BALB/c mice; cited from earlier work
[3] = tested on: stage IV melanoma characterized by distant unresectable metastases; test: Phase II clinical trial with DTIC plus Tα1 with or without IFNα vs DTIC plus IFNα; tumor response by RECIST; format: in vivo, human; details: preliminary analysis on 142 patients; at the higher doses of Tα1
Description: Phase II Clinical Trial with Dacarbazine (DTIC) Plus Thymosin alpha 1 (Tα1) with or without Interferon alpha (IFNα) vs DTIC Plus IFNα in Stage IV Melanoma Characterized by Distant Unresectable Metastases
Trial Design phase II, randomized, stratified, open-study testing different doses of Tα1 in association with DTIC and IFNα, as first line therapy for stage IV melanoma patients characterized by distant unresectable metastases (AJCC; Journal of Clinical Oncology 2001, 19: 3635-3648) without brain metastases. The primary study end-point was tumor response, and the following combination composition were used:
The protocol was than amended: 30 patients were added to each of the 2 triple therapies in order to balance the sample size of all the four groups and the following new group (using a higher dose of Tα1) was added:
The five groups were analyzed independently one another within the so-called “pick the winner” strategy.
Methods: Recycling every 28 days, patients were administered DTIC (800 mg/m^2) i.v. at day 1, Tα1 (1.6 or 3.2 mg) s.c. at days 8-11 and 15-18, and IFNα (3 MIU) s.c. at day 11 and 18. Clinical response was evaluated every two cycles according to RECIST criteria (New Guidelines to Evaluate the Response to Treatment in Solid Tumors; Journal of the National Cancer Institute, 2000. 92: 205-216) utilizing a central reader. […]

[4] = tested on: metastatic melanoma; details: cited from earlier work

| Compound | tumor volume [1] | local sarcoma growth as well as liver and lung metastases of lymphosarcoma cells [2] | dose-response effect on tumor response [3] | duration of responses (short-lived) ([4]; DTIC responses) | effect of responses on patients' overall survival ([4]; DTIC) | actual overall responses to DTIC ([4]; Journal of Clinical Oncology and ASCO proceedings 2004) |
| --- | --- | --- | --- | --- | --- | --- |
| thymosin alpha 1 (SDAAVDTSSEITTKDLKEKKEVVEEAEN; ends and bridges not checked; UniProt P06454 2-29, looked up) [a compound well known in the medical field] | significantly decreased | significantly reduced | clear dose-response effect |  |  |  |
| CN(C)/N=N/c1[nH]cnc1C(N)=O [DTIC, Dacarbazine] |  |  |  | three to six | no evidence that these responses have any effect on the patients' overall survival | 5.5-6.8% |
